According to article doi:10.1101/2025.04.18.649305v1 (biorxiv, 2025):

Target: NAMPT (recombinant human) (Homo sapiens, UniProt P43490)
Test: biolayer interferometry
Assay type: binding

Sequence of NAMPT (recombinant human) (P43490 whole entry): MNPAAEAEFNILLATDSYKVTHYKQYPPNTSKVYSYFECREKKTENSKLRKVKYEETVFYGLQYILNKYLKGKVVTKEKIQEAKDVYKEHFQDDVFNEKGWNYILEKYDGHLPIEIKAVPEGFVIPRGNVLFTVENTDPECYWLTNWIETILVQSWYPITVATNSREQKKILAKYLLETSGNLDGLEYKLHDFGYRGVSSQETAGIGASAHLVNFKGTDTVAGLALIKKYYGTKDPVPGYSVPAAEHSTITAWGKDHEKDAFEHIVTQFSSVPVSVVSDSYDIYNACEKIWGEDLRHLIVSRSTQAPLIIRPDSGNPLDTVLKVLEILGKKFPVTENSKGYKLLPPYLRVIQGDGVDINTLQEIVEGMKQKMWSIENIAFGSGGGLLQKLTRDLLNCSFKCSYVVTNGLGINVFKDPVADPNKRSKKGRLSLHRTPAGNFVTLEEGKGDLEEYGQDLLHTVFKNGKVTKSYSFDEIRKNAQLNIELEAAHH

Kd: 106 µM
SMILES: O=C(CC(C(=O)O)c1c[nH]c2ccccc12)c1ccc(F)cc1F (racemic) [MA-5]
